# Measurements reported in patent US8212104B2, “Model of experimentally induced chronic pain and uses thereof” (The Board of Regents of the University of Texas System, priority 2008, dated 2012).
# Entries after “also recorded” stand apart in the source; their conditions may differ.
# Experiments:
# [1] = system: peripheral nerve injury sheep model; experiment: Mechanical hyperalgesia (pin-prick test) after intrathecal morphine in the peripheral nerve injury sheep model; assay type: in vivo
# Description: Adult female merino sheep weighing 40-60 kg were used to produce the peripheral nerve injury sheep model. All experimental procedures were approved by the Institutional of Animal Care and Use Committee at the University of Texas Medical Branch and were in accordance with the guidelines of National Institutes of Health and of the International Association for the study of Pain (IASP).
# Sheep were fasted for 24 hours prior to surgery. General anesthesia was given followed by 600 mg IM injection of ketamine. An intravenous line was placed in the external jugular and the sheep received an additional 200 mg of ketamine IV and a prophylactic dose of cefazolin 1 g IV. After intubation, the sheep were maintained on 2% isoflurane in oxygen and mechanically ventilated. The sheep received IV fluids (0.9% Normal Saline). Body temperature was maintained with a circulating water pad. Oxygen saturation was monitored and maintained between 98-100%. Heart rate and blood pressure remained within normal limits and required no adjustments. Sheep was positioned prone with hind limbs positioned cephalad beside the abdomen. A positioning pillow was placed under the chest, raising the head and chest and allowing a lordotic curve of the lumbar spine. The sheep was loosely secured to the operating table. The lumbrosacral area was sterilely prepped with betadine and draped. A vertical midline incision was made over the L-6 to S-2 vertebrae. The spinous processes of L6 and S1 were partially resected to allow greater exposure of the dura. A purse string of 7-O nylon was placed in the dura, the dura carefully lifted and nicked. A RACZ epidural catheter (16 Ga×36) catheter with snaplock catheter/syringe adapter was placed into the subarachnoid space and advanced until the 10 cm mark was at the opening of the dura. Once CSF flow through the catheter was confirmed, the dura was pulled close to the catheter with the purse string and the catheter was secured to the muscle fascia. The dura, muscle fascia, and skin were closed. The catheter was looped and secured subcutaneously. The catheter was then tunneled and secured to the skin of the sheep with suture. The sheep was allowed 5 days to recover and was tested for neurologic deficits. Animals with neurologic deficits were sacrificed.
# (§1) After the placement of an intrathecal catheter and the documentation of a lack of any neurological deficits, common peroneal nerve injury surgery was performed. As described previously, the sheep was premedicated with intramuscular ketamine, intubated and mechanically ventilated. The sheep was positioned laterally and the hind leg was sterilely prepared and draped. A vertical incision was made mid-thigh. The semimembranous and semitendinous muscle bellies were separated to expose the common peroneal nerve and tibial nerve. The common peroneal nerve was ligated with 2-0 silk suture and cut distally. A 1-cm segment was removed from the distal stump to prevent re-growth. Fascia and skin were closed.
# With the sheep in the stanchion, a pin-prick test was performed using a 300 gram von-frey filament. […] The duration of hindlimb withdrawal was recorded^14.
# Three weeks after peroneal nerve injury, the analgesic effect of morphine was measured. […]
# Baseline withdrawal thresholds to mechanical stimulation were measured prior to morphine administration and at ten-minute intervals post-morphine. The anti-nociceptive effect of morphine time course was determined by measuring the pin-prick frequency every 10-min after intrathecal administration. […]
# [2] = system: peripheral nerve injury sheep model; experiment: Mechanical allodynia (hindlimb withdrawal threshold, von Frey filaments) after intrathecal morphine in the peripheral nerve injury sheep model; assay type: in vivo; settings: intrathecal morphine sulfate 50 to 1200 micrograms, three weeks after peripheral nerve injury
# Description: as §1, with “closed. […]” for “closed.”
# Based on the response to the first von-frey stimuli presented the following stimulus was increased if a negative or null response or decreased if there was a positive response. The 50% response threshold was calculated using the formula: 50% g threshold=(10^[x^f^+κδ]/10,000. The 50% withdrawal thresholds to von-frey filaments were used to assess the behavior change. To avoid inter-observer variability, one investigator did the majority of behavioral experiments. Additionally, each sheep did only one behavioral test per day.
# Baseline withdrawal thresholds to mechanical stimulation were measured prior to morphine administration and at ten-minute intervals post-morphine. […]
# [3] = 200 micrograms intrathecal, measured by pin prick
# [4] = intrathecal 2 to 1200 micrograms, three weeks after peroneal nerve injury, 30 minutes after drug delivery
structure (smiles),measurement,setting,value
CN1CC[C@]23c4c5ccc(O)c4O[C@H]2[C@@H](O)C=C[C@H]3[C@H]1C5 [morphine],duration of analgesia,[1]; [3],> 120 min
same,time of peak analgesia,[1]; [3],30 min
same,"reduction in efficacy, ipsilateral compared to contralateral dose response curve",[1]; [4],approximately 4 fold
same,"reduction in potency, ipsilateral compared to contralateral dose response curve",[1]; [4],approximately 2 fold
same,analgesic effect after nerve injury / injured versus contralateral hindlimb (in words),"[1]; intrathecal, ipsilateral (nerve injured) vs contralateral (non-injured) hindlimb",significantly reduced; also recorded: much less analgesia; also recorded: more potency on the contralateral
same,"hindlimb withdrawal threshold, reversal (contralateral hindlimb)",[2],completely reversed
same,increase of hindlimb withdrawal threshold on the ipsilateral hindlimb,[2],36%
